Laboratory results from PubChem BioAssay (NCI).
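GI50 = concentration required for 50% inhibition of growth. TGI denotes the concentration required for complete inhibition of growth.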

Legend:
Experiment in all cases: NCI-60 cell line screen, 384-well format
HOP-92 NSCLC = test system: HOP-92 NSCLC
SF-539 CNS = test system: SF-539 CNS
SNB-75 CNS = test system: SNB-75 CNS
UACC-257 melanoma = test system: UACC-257 melanoma
SF-295 CNS = test system: SF-295 CNS
NCI-H522 lung = test system: NCI-H522 lung
UO-31 renal = test system: UO-31 renal
HCC-2998 colon = test system: HCC-2998 colon
CAKI-1 renal = test system: CAKI-1 renal
MDA-MB-468 breast = test system: MDA-MB-468 breast
OVCAR-4 ovarian = test system: OVCAR-4 ovarian
SK-MEL-5 melanoma = test system: SK-MEL-5 melanoma
DU-145 prostate = test system: DU-145 prostate
OVCAR-3 ovarian = test system: OVCAR-3 ovarian
TK-10 renal = test system: TK-10 renal
MCF7 breast = test system: MCF7 breast
MDA-MB-435 melanoma = test system: MDA-MB-435 melanoma
COLO 205 colon = test system: COLO 205 colon
RXF 393 renal = test system: RXF 393 renal
HT29 colon = test system: HT29 colon
HL-60(TB) leukemia = test system: HL-60(TB) leukemia
LOX IMVI melanoma = test system: LOX IMVI melanoma
HCT-15 colon = test system: HCT-15 colon
SK-MEL-28 melanoma = test system: SK-MEL-28 melanoma
A498 renal = test system: A498 renal
HS 578T breast = test system: HS 578T breast
EKVX NSCLC = test system: EKVX NSCLC
NCI-H226 lung = test system: NCI-H226 lung
M14 melanoma = test system: M14 melanoma
IGROV1 ovarian = test system: IGROV1 ovarian
NCI-H460 NSCLC = test system: NCI-H460 NSCLC
UACC-62 melanoma = test system: UACC-62 melanoma
CCRF-CEM leukemia = test system: CCRF-CEM leukemia
KM12 colon = test system: KM12 colon
OVCAR-8 ovarian = test system: OVCAR-8 ovarian
T-47D breast = test system: T-47D breast
RPMI-8226 leukemia = test system: RPMI-8226 leukemia
ACHN renal = test system: ACHN renal
SW-620 colon = test system: SW-620 colon
786-0 renal = test system: 786-0 renal
NCI/ADR-RES ovarian = test system: NCI/ADR-RES ovarian
SF-268 CNS = test system: SF-268 CNS
SN12C renal = test system: SN12C renal
SNB-19 CNS = test system: SNB-19 CNS
SK-OV-3 ovarian = test system: SK-OV-3 ovarian
HOP-62 NSCLC = test system: HOP-62 NSCLC
NCI-H322M lung = test system: NCI-H322M lung
MALME-3M melanoma = test system: MALME-3M melanoma
K-562 leukemia = test system: K-562 leukemia
SR leukemia = test system: SR leukemia
OVCAR-5 ovarian = test system: OVCAR-5 ovarian
MDA-MB-231 breast = test system: MDA-MB-231 breast
A549 NSCLC = test system: A549 NSCLC
BT-549 breast = test system: BT-549 breast
NCI-H23 lung = test system: NCI-H23 lung
MOLT-4 leukemia = test system: MOLT-4 leukemia
PC-3 prostate = test system: PC-3 prostate

CCOCCOC[C@H]1CCCN(c2ccnc3sc(C(N)=O)c(N)c23)C1
GI50 (HOP-92 NSCLC): > 100 µM
TGI (HOP-92 NSCLC): > 100 µM
GI50 (SF-539 CNS): > 100 µM
TGI (SF-539 CNS): > 100 µM
GI50 (SNB-75 CNS): > 100 µM
TGI (SNB-75 CNS): > 100 µM
GI50 (UACC-257 melanoma): 61.1 µM
TGI (UACC-257 melanoma): > 100 µM
GI50 (SF-295 CNS): 59.3 µM
TGI (SF-295 CNS): > 100 µM
GI50 (NCI-H522 lung): 5.77 µM
TGI (NCI-H522 lung): > 100 µM
GI50 (UO-31 renal): > 100 µM
TGI (UO-31 renal): > 100 µM
GI50 (HCC-2998 colon): > 100 µM
TGI (HCC-2998 colon): > 100 µM
GI50 (CAKI-1 renal): > 100 µM
TGI (CAKI-1 renal): > 100 µM
GI50 (MDA-MB-468 breast): 1.34 µM
TGI (MDA-MB-468 breast): 7.04 µM
GI50 (OVCAR-4 ovarian): 34.1 µM
TGI (OVCAR-4 ovarian): > 100 µM
GI50 (SK-MEL-5 melanoma): 2.56 µM
TGI (SK-MEL-5 melanoma): 18.1 µM
GI50 (DU-145 prostate): > 100 µM
TGI (DU-145 prostate): > 100 µM
GI50 (OVCAR-3 ovarian): 23.8 µM
TGI (OVCAR-3 ovarian): > 100 µM
GI50 (TK-10 renal): > 100 µM
TGI (TK-10 renal): > 100 µM
GI50 (MCF7 breast): 23 µM
TGI (MCF7 breast): > 100 µM
GI50 (MDA-MB-435 melanoma): > 100 µM
TGI (MDA-MB-435 melanoma): > 100 µM
GI50 (COLO 205 colon): 61.6 µM
TGI (COLO 205 colon): > 100 µM
GI50 (RXF 393 renal): 12.9 µM
TGI (RXF 393 renal): > 100 µM
GI50 (HT29 colon): > 100 µM
TGI (HT29 colon): > 100 µM
GI50 (HL-60(TB) leukemia): 13.5 µM
TGI (HL-60(TB) leukemia): 63.8 µM
GI50 (LOX IMVI melanoma): 16.9 µM
TGI (LOX IMVI melanoma): > 100 µM
GI50 (HCT-15 colon): > 100 µM
TGI (HCT-15 colon): > 100 µM
GI50 (SK-MEL-28 melanoma): > 100 µM
TGI (SK-MEL-28 melanoma): > 100 µM
GI50 (A498 renal): 13.9 µM
TGI (A498 renal): > 100 µM
GI50 (HS 578T breast): > 100 µM
TGI (HS 578T breast): > 100 µM
GI50 (EKVX NSCLC): 35.1 µM
TGI (EKVX NSCLC): > 100 µM
GI50 (NCI-H226 lung): 90.9 µM
TGI (NCI-H226 lung): > 100 µM
GI50 (M14 melanoma): > 100 µM
TGI (M14 melanoma): > 100 µM
GI50 (IGROV1 ovarian): 29.6 µM
TGI (IGROV1 ovarian): > 100 µM
GI50 (NCI-H460 NSCLC): 11.4 µM
TGI (NCI-H460 NSCLC): > 100 µM
GI50 (UACC-62 melanoma): 35.6 µM
TGI (UACC-62 melanoma): > 100 µM
GI50 (CCRF-CEM leukemia): 1.43 µM
TGI (CCRF-CEM leukemia): 11.2 µM
GI50 (KM12 colon): 46.7 µM
TGI (KM12 colon): > 100 µM
GI50 (OVCAR-8 ovarian): 15.2 µM
TGI (OVCAR-8 ovarian): > 100 µM
GI50 (T-47D breast): 2.23 µM
TGI (T-47D breast): 67.4 µM
GI50 (RPMI-8226 leukemia): 0.499 µM
TGI (RPMI-8226 leukemia): 14.4 µM
GI50 (ACHN renal): 44.9 µM
TGI (ACHN renal): > 100 µM
GI50 (SW-620 colon): > 100 µM
TGI (SW-620 colon): > 100 µM
GI50 ([…]-0 renal): 43.9 µM
TGI (786-0 renal): > 100 µM
GI50 (NCI/ADR-RES ovarian): 3.53 µM
TGI (NCI/ADR-RES ovarian): 27.6 µM
GI50 (SF-268 CNS): > 100 µM
TGI (SF-268 CNS): > 100 µM
GI50 (SN12C renal): > 100 µM
TGI (SN12C renal): > 100 µM
GI50 (SNB-19 CNS): > 100 µM
TGI (SNB-19 CNS): > 100 µM
GI50 (SK-OV-3 ovarian): 17.6 µM
TGI (SK-OV-3 ovarian): > 100 µM
GI50 (HOP-62 NSCLC): 18.5 µM
TGI (HOP-62 NSCLC): > 100 µM
GI50 (NCI-H322M lung): 13.4 µM
TGI (NCI-H322M lung): > 100 µM
GI50 (MALME-3M melanoma): > 100 µM
TGI (MALME-3M melanoma): > 100 µM
GI50 (K-562 leukemia): 4.6 µM
TGI (K-562 leukemia): > 100 µM
GI50 (SR leukemia): 1.07 µM
TGI (SR leukemia): 3.5 µM
GI50 (OVCAR-5 ovarian): > 100 µM
TGI (OVCAR-5 ovarian): > 100 µM
GI50 (MDA-MB-231 breast): 82.3 µM
TGI (MDA-MB-231 breast): > 100 µM
GI50 (A549 NSCLC): > 100 µM
TGI (A549 NSCLC): > 100 µM
GI50 (BT-549 breast): 79.1 µM
TGI (BT-549 breast): > 100 µM
GI50 (NCI-H23 lung): 7.19 µM
TGI (NCI-H23 lung): > 100 µM
GI50 (MOLT-4 leukemia): 3.13 µM
TGI (MOLT-4 leukemia): 23.1 µM
GI50 (PC-3 prostate): 55.1 µM
TGI (PC-3 prostate): > 100 µM
